In ChEMBL document CHEMBL1201862, “PubChem BioAssay data set” (2004):
Values belong to the compound of their own block, whether it stands above or below them. Active and inactive are the calls of the source.

Experiments:
[1] = target: T1, Tyrosyl-DNA phosphodiesterase 2 (Homo sapiens, UniProt O95551); test: human TDP2 enzyme inhibitors, dose response, biochemical, epi absorbance, IC50 (AID 743297)
T1 sequence (O95551 whole entry): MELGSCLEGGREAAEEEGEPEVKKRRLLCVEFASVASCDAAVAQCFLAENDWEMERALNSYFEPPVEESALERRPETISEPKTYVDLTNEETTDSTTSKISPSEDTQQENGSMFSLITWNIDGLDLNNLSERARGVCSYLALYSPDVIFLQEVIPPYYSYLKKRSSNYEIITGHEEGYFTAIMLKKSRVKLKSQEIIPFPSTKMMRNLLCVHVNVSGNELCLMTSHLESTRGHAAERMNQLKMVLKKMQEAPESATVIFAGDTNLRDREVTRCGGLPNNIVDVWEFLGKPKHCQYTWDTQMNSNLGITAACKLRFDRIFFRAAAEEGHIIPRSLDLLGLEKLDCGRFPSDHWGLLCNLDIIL

[2] = target: Mitochondrial peptide methionine sulfoxide reductase (Bos taurus, UniProt P54149); test: Absorbance-based biochemical high throughput dose response assay for activators of Methionine sulfoxide reductase A (MsrA).; assay type: functional
[3] = target: T2, Rac GTPase-activating protein 1 (Homo sapiens, UniProt Q9H0H5); test: MgcRacGAP GTPase-activating activity inhibitors, confirmation, biochemical, ADP Hunter fluorescence, primary and confirmatory (AID 624330); assay type: functional
T2 sequence (Q9H0H5 whole entry): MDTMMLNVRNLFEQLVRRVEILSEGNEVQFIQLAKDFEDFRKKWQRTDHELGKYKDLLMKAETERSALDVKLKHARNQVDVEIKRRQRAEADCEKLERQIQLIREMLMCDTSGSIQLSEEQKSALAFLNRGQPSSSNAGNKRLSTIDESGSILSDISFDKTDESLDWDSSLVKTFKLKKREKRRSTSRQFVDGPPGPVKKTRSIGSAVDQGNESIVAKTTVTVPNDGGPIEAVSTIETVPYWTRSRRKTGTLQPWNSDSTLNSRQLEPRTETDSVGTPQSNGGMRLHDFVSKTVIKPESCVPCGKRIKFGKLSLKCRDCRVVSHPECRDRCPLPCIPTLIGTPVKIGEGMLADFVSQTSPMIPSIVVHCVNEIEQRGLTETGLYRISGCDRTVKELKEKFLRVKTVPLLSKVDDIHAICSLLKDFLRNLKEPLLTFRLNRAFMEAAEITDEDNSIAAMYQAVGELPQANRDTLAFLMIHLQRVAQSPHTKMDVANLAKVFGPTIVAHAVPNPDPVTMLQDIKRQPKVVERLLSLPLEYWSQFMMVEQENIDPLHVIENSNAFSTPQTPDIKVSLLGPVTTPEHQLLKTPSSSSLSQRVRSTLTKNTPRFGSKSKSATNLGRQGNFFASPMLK

[4] = HeLa cell cytotoxicity, dose response, cytotoxicity control for MgcRacGAP inhibitor project (AID 624300); assay type: functional
[5] = inhibitors of intracellular T. cruzi replication, confirmation, NIH3T3 host cells, beta-gal luminescence (AID 2044); assay type: functional, cell-based;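 note: intracellular parasites grown in NIH/3T3 mouse fibroblasts as host cells; luminescent beta-galactosidase reporter signal from transgenic T. cruzi replicating inside host cells; inhibitors lower the luminescence signal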
[6] = target: T3, High affinity choline transporter 1 (Homo sapiens, UniProt Q9GZV3); test: CHT activators, dose response, cell-based, 10-point CRC, membrane potential dye (AID 602376); assay type: functional
T3 sequence (Q9GZV3 whole entry): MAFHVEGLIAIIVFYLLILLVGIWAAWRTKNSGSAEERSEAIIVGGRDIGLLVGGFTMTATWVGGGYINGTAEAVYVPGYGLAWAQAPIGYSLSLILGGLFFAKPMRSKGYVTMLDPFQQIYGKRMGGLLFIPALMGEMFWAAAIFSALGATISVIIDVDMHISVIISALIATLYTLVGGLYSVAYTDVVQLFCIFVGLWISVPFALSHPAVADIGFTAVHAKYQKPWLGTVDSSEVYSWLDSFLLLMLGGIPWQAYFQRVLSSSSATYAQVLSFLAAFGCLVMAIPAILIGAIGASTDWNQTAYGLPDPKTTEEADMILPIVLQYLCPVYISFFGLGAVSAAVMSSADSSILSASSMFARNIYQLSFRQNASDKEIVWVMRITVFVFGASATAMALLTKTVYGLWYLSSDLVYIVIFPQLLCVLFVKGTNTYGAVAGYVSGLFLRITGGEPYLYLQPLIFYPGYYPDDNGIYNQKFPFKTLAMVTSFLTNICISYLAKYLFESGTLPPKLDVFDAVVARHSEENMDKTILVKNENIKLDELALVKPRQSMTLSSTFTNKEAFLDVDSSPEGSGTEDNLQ

[7] = cytotoxicity toward NIH3T3 fibroblasts, dose response, counter-screen, cell-based, ATP luminescence, mouse fibroblasts (AID 2010); assay type: functional;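 note: cells exposed to compound for about 90 hours before reading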
[8] = target: T4, Sentrin-specific protease 7 (Homo sapiens, UniProt Q9BQF6); test: SENP7 protease inhibitors, SAR follow-up, biochemical, luminescence, set 2 (AID 588600); assay type: functional
T4 sequence (Q9BQF6 whole entry): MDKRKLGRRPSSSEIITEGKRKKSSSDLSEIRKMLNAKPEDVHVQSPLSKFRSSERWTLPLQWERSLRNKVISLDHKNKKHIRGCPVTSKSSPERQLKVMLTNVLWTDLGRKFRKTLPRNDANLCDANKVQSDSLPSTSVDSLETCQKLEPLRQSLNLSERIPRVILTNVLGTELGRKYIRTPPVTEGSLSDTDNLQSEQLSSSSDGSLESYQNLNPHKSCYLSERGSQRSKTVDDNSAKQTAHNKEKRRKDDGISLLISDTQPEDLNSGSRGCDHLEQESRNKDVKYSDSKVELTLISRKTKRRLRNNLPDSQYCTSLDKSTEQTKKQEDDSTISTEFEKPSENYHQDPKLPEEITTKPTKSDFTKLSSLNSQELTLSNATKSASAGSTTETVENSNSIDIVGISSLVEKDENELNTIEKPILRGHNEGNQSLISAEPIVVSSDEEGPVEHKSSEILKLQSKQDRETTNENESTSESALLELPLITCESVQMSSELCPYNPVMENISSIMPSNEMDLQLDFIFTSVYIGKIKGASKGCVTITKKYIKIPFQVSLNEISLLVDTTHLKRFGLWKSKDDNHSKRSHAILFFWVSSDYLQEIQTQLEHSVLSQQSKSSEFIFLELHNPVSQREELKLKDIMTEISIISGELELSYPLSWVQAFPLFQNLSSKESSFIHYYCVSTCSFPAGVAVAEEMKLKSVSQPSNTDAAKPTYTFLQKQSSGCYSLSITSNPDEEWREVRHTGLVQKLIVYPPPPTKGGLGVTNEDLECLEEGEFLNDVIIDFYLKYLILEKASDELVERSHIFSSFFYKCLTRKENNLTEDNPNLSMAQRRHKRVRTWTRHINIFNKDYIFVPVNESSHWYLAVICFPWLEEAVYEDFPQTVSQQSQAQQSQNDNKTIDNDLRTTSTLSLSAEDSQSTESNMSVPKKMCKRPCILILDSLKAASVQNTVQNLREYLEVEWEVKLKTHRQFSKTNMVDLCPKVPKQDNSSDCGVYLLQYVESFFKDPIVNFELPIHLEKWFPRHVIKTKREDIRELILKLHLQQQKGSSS

Caspase-3 [9] = target: T5, Caspase-3 (Homo sapiens, UniProt P42574); test: caspase-3 inhibitors as off-family protease, SAR follow-up, selectivity assay for SENP protease inhibitor project, biochemical, luminescence, set 2 (AID 588599); assay type: functional
T5 sequence (P42574 whole entry): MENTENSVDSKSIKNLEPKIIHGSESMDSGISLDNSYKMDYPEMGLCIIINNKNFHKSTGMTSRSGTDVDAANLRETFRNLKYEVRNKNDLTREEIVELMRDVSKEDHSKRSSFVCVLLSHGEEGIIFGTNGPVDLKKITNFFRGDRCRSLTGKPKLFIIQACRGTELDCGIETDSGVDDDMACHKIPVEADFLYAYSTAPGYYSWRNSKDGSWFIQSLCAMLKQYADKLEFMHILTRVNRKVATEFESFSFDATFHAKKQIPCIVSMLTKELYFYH

[10] = target: T6, Sentrin-specific protease 6 (Homo sapiens, UniProt Q9GZR1); test: SENP6 protease inhibitors, SAR follow-up, biochemical, luminescence, set 2 (AID 588598); assay type: functional
T6 sequence (Q9GZR1 whole entry): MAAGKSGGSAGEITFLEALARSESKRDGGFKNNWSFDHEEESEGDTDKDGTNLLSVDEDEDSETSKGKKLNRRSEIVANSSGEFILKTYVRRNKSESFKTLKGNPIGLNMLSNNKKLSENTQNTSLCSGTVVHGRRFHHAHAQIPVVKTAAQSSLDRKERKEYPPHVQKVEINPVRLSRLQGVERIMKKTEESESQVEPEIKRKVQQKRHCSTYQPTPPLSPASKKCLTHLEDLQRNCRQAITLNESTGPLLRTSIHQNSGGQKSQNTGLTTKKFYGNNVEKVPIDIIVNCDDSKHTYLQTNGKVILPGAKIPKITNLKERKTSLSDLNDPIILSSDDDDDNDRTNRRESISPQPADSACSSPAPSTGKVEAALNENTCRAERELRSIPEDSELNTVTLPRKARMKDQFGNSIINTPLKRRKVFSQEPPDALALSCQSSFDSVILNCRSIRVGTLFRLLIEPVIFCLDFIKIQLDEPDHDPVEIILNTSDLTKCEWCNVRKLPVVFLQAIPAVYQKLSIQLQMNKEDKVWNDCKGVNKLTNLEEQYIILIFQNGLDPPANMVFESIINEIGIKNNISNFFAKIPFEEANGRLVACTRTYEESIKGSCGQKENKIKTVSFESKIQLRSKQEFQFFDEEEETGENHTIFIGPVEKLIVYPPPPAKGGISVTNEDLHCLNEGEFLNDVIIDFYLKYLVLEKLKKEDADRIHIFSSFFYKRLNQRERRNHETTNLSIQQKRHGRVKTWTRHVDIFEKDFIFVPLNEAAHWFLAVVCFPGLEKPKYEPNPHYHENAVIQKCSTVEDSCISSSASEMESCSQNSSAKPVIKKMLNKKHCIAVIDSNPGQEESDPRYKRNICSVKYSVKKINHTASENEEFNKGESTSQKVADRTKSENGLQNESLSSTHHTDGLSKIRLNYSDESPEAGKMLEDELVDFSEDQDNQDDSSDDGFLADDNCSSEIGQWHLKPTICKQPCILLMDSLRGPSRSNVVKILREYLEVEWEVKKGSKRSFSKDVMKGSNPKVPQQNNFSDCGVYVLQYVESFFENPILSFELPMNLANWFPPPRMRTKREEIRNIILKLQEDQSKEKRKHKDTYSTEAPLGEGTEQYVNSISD

[11] = target: T7, Sentrin-specific protease 8 (Homo sapiens, UniProt Q96LD8); test: SENP8 protease inhibitors, SAR follow-up, biochemical, luminescence, set 2 (AID 588601); assay type: functional
T7 sequence (Q96LD8 whole entry): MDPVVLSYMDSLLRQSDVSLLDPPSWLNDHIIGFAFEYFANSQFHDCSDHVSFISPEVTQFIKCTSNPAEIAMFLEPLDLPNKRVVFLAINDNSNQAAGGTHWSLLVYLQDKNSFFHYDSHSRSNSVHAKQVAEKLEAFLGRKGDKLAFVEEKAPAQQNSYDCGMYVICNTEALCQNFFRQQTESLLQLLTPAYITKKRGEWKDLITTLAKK

[12] = target: Melanin-concentrating hormone receptor 1 (Homo sapiens, UniProt Q99705); test: Late-stage fluorescence-based counterscreen for antagonists of the G-protein coupled receptor 7 (GPR7): cell-based dose response assay to identify antagonists of the melanin-concentrating hormone receptor 1 (MCHR1) Set 6.; assay type: functional
[13] = target: Potassium voltage-gated channel subfamily KQT member 2 (Rattus norvegicus, UniProt O88943); test: KCNQ2 potassium channel inhibitors, dose response, cell-based, automated electrophysiology, set II, rat KCNQ2 (AID 588637); assay type: functional
[14] = target: T7, Sentrin-specific protease 8; test: SENP8 protease inhibitors, SAR follow-up, biochemical, luminescence (AID 504501); assay type: functional
[15] = target: T6, Sentrin-specific protease 6; test: SAR Analysis of small molecule inhibitors of Sentrin-specific protease 6 (SENP6) using a Luminescent assay. [Related pubchem assays (depositor defined):AID2582, AID2599]; assay type: functional
[16] = target: T4, Sentrin-specific protease 7; test: SENP7 protease inhibitors, SAR follow-up, biochemical, luminescence (AID 504497); assay type: functional
Caspase-3 [17] = target: T5, Caspase-3; test: SAR Analysis of small molecule inhibitors of Sentrin-specific proteases (SENPs) using a Caspase-3 Selectivity assay. [Related pubchem assays (depositor defined):AID2540, AID2599, AID434973, AID489001]; assay type: functional

Melanin-concentrating hormone receptor 1, sequence (Q99705 whole entry): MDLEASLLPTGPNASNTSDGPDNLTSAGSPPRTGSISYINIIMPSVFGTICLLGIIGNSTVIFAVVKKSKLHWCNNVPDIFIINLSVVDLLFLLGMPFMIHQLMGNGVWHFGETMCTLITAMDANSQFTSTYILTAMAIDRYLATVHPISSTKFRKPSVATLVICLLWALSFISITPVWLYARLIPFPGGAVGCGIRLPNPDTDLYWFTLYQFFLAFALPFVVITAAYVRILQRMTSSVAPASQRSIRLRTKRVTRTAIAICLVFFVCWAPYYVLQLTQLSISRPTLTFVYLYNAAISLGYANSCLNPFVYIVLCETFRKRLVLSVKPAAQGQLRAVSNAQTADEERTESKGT
Mitochondrial peptide methionine sulfoxide reductase, sequence (P54149 whole entry): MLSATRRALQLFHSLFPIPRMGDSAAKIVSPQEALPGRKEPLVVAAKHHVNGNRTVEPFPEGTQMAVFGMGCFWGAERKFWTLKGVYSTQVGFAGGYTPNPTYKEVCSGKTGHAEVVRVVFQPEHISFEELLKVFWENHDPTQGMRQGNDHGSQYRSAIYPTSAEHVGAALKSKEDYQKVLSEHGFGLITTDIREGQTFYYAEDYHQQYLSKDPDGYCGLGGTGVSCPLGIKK
Potassium voltage-gated channel subfamily KQT member 2, sequence (O88943 whole entry): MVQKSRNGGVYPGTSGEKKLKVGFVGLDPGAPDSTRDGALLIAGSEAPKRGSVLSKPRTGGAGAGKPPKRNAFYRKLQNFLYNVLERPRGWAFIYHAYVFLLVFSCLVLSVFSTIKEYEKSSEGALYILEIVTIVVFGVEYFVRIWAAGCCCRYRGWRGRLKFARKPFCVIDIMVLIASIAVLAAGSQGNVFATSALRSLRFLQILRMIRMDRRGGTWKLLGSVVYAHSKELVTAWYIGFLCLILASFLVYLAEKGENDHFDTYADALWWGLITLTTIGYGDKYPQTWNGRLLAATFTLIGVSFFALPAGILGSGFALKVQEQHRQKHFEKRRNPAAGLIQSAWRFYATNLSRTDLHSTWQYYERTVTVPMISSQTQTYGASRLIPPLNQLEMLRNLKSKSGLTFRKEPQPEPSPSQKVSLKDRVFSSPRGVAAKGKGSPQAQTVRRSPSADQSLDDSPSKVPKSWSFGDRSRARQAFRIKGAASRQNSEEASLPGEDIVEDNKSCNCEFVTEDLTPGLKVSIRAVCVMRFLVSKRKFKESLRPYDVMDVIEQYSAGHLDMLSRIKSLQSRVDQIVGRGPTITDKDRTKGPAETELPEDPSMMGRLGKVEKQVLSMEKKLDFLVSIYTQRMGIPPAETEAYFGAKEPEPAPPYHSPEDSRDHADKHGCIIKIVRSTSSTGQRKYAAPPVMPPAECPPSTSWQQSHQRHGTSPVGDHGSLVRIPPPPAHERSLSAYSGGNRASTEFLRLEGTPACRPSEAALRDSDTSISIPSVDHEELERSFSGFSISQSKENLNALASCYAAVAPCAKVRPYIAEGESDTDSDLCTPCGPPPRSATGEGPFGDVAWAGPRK

IC50 [1]: > 128 µM (inactive)
EC50 [2]: > 104 µM (inactive)
IC50 [3]: 58.9 µM (active)
Structure (SMILES): C[n+]1c(-c2ccccc2)cc2c(=Cc3ccccc3)c3ccccc3n21
CC50 [4]: 26.3 µM (active)

Structure (SMILES): CCN(CC)S(=O)(=O)c1cnccc1N1CCN(c2cccc(Cl)c2)CC1
EC50 [5]: < 0.1 µM (active)
EC50 [6]: 24.7 µM (active)
EC50 [7]: > 60 µM (not active)
EC50 (cells): 0.268 µM (active)

IC50 [8]: > 99 µM (inactive)
IC50 (Caspase-3 [9]): > 99 µM (inactive)
IC50 [10]: > 99 µM (inactive)
Structure (SMILES): COc1cc(/C=C(/C#N)c2nc(-c3ccc(C)cc3)no2)ccc1OCc1cccc(C(F)(F)F)c1
IC50 [11]: > 99 µM (inactive)

IC50 [12]: 0.781 µM (active)
Structure (SMILES): COc1ccc(Oc2c(Cl)cnn(CC(=O)N3c4ccccc4CC3C)c2=O)cc1 (stereo not drawn)

IC50 [13]: 2.96 µM (active)
Structure (SMILES): CCN(CC)S(=O)(=O)c1ccc(N2CCOCC2)c(NC(=O)COc2ccccc2)c1

Structure (SMILES): CCCCc1n(C)c2ccccc2[n+]1CC(=O)c1ccc(Cl)cc1
EC50 [6]: 9.58 µM (active)

IC50 [8]: 11.1 µM (active)
IC50 (Caspase-3 [9]): 33.8 µM (active)
IC50 [10]: 11.7 µM (active)
IC50 [15]: 32 µM (active)
IC50 [16]: 14 µM (active)
IC50 (Caspase-3 [17]): 37 µM (active)
Structure (SMILES): Fc1ccc(-c2nc(/C=C/c3ccccc3)no2)cc1
IC50 [14]: 33 µM (active)
IC50 [11]: 11.7 µM (active)
